In patent US20190374536A1, “METHODS OF USING FASN INHIBITORS” (FORMA Therapeutics, Inc., priority 2016, published 2019):
Marks after values point to notes of the source that are not given here.

Legend:
[1] = test system: HSD rat model; assay: High-sucrose diet (HSD) fed rat model: plasma/liver TG, plasma leptin; format: in vivo; settings: HSD rats, 5 mg/kg QD
Source text: A HSD represents an alternative experimental model for obesity and steatosis. In this model, 60-70% of the caloric intake is from simple carbohydrates, and thus, the primary source of increased TG is through DNL.
Male SD rats (6-8 week old) were fed a HSD (D10001, Research Diets Inc.) for six weeks to develop the obese phenotype and then sorted into treatment groups (N=8 each) based on mean body weight.

[2] = test system: HFD rat model; assay: High fat diet (HFD) fed rat model: steatosis, plasma/liver TG, plasma leptin; format: in vivo; settings: HFD rats, 5 mg/kg QD
Source text: Steatosis is caused by the accumulation of triglycerides (TG) in the liver, and as such, decreases in TG may represent a potential marker for activity on steatosis. The obese phenotype of HFD model is dependent on the incorporation of high dietary fat and DNL-derived fat. […] The key endpoints of this study were to evaluate the relationship between dose schedule and exposure with changes in liver steatosis score and liver TG. For these studies, male SD rats (6-8 week old) were fed a high fat diet (D124942, Research Diets Inc.) for four weeks to develop the obese phenotype and then sorted into treatment groups (N=8) based on mean body weight. […] Rosiglitazone 5 mg/kg QD was included as a positive control. Plasma and serum samples were collected weekly throughout the study. After 28 days of treatment, animals were sacrificed and liver and plasma samples were collected. Livers were fixed in formalin, processed for H&E staining, and evaluated by a pathologist specializing in NASH.
Two HFD studies were conducted. […] The second HFD study investigated the endpoints of steatosis and liver and plasma markers of lipogenesis (including TG and FFA).

[3] = test system: TH17 cells differentiated in-vitro; assay: TH17 differentiation assay: inhibition of IL-17 secretion; format: cell-based; parameters: activity: dose or concentration left out as unconfirmed; settings: Homo sapiens; for inhibition at 1 µM: IL-17 secretion; for activity: TH17 cells differentiated in-vitro, read-out: IL17 secretion (% of DMSO)
Source text: CD4+ T cells were isolated using CD4+ T cell isolation kit (Miltenyi Biotech), activated with CD3/CD28 microbeads and cultured for 7-10 days in the presence of IL-1β, IL-6, IL-21, I-23 and TGFβ and test compounds. Cells cultured with DMSO or without cytokines and/or microbeads were used as negative controls.
Read out: (1) At day 7-10, the supernatants were collected and tested for soluble 1-17. (2) Cells were also harvested and stained for intra-cellular IL-17A. (3) Cells were also stained separately by Annexin/PI for cell viability. (4) Pictures of cultures were taken for each condition.

For `CN(CCOc1ccc(CC2SC(=O)NC2=O)cc1)c1ccccn1` (stereo not shown) [Rosiglitazone], the “Plasma TG % Decrease of treatment group (mean) vs. vehicle treated HSD group (mean)” value ([1]; Day 14) was 60.6%, the “Plasma TG Raw Data (Mean ± SEM)” value ([1]; Day 14) was 1.07 ± 0.10 mmol/L and the “Plasma TG % Decrease of treatment group (mean) vs. vehicle treated HSD group (mean)” value ([1]; Day 26) was 62.3%. For the same molecule, the “Plasma TG Raw Data (Mean ± SEM)” value ([1]; Day 26) was 1.24 ± 0.17 mmol/L, the “Liver TG % Decrease of treatment group (mean) vs. vehicle treated HSD group (mean)” value ([1]; Day 28) was 41.2 * % and the “Liver TG Raw Data (Mean ± SEM)” value ([1]; Day 28) was 8.5 ± 1.5 µmol/g. The “Plasma Leptin (Mean ± SEM)” value ([1]; Day 28) was 12.6 ± 2.5 ng/mL, the “Plasma TG % Decrease of treatment group (mean) vs. vehicle treated HFD group (mean)” value ([2]; Day 14) was 52.5% and the “Plasma TG Raw Data (Mean ± SEM)” value ([2]; Day 14) was 0.48 ± 0.02 mmol/L. For the same molecule, the “Plasma TG % Decrease of treatment group (mean) vs. vehicle treated HFD group (mean)” value ([2]; Day 26) was 60.0%, the “Plasma TG Raw Data (Mean ± SEM)” value ([2]; Day 26) was 0.46 ± 0.05 mmol/L and the “Liver TG % Decrease of treatment group (mean) vs. vehicle treated HFD group (mean)” value ([2]; Day 28) was 70.0%. The “Liver TG Raw Data (Mean ± SEM)” value ([2]; Day 28) was 17.2 ± 0.8 µmol/g and the “Plasma Leptin (Mean ± SEM)” value ([2]; Day 28) was 16.0 ± 1.2 ng/mL.

For `O=C(c1ccc(-c2nc3ccc(F)cc3o2)cc1)N1CCN(C(=O)C2(O)CC2)CC1` [compound 1], the inhibition at 1 µM [3] was 46% and the activity [3] was 54%.

Molecule `O=C(c1ccc(-c2nc3ccc(Cl)cc3o2)cc1)N1CCN(C(=O)C2(O)CC2)CC1` [compound 2] has an inhibition at 1 µM [3] of 79% and an activity [3] of 21%.

With `O=C(c1ccc(-c2cc(Cl)ccc2F)cc1)N1CCN(C(=O)C2(O)CC2)CC1` [compound 3] the inhibition at 1 µM [3] was 75% and the activity [3] was 25%.

With `Cn1cnc2cc(-c3ccc(C(=O)N4CCN(C(=O)C5(O)CC5)CC4)c(F)c3)ccc21` [compound 4] the inhibition at 1 µM [3] was 85% and the activity [3] was 15%.

In the case of `Cn1ncc2ccc(-c3ccc(C(=O)N4CCN(C(=O)C5(N)CC5)CC4)cc3)cc21` [compound 5], the inhibition at 1 µM [3] is reported as 74% and the activity [3] is reported as 26%.

Work on `O=C(c1ccc(-c2nc3ccc(F)cc3o2)cc1F)N1CCN(C(=O)C2(O)CC2)CC1` [compound 6] yielded an inhibition at 1 µM [3] of 53% and an activity [3] of 47%.

`C[C@@H]1CN(C(=O)c2ccc(-c3nc4ccc(F)cc4o3)cc2)CCN1C(=O)C1(O)CC1` [compound 7] showed an inhibition at 1 µM [3] of 66% and an activity [3] of 34%.

`C[C@H]1CN(C(=O)c2ccc(-c3ccc4c(c3)ncn4C)cc2F)CCN1C(=O)C1(O)CC1` [compound 8] gave an inhibition at 1 µM [3] of 77% and an activity [3] of 23%.

`Cn1cnc2cc(-c3ccc(C(=O)N4CCN(C(=O)C5(O)CC5)CC4)cc3)ccc21` [compound 9] was tested, and the inhibition at 1 µM [3] was 76% and the activity [3] was 24%.

`C[C@H]1CN(C(=O)c2ccc(-c3nc4ccc(Cl)cc4o3)cc2)CCN1C(=O)C1(O)CC1` [compound 11] showed an inhibition at 1 µM [3] of 67% and an activity [3] of 33%.
